Reference: ChEMBL document CHEMBL1201862, “PubChem BioAssay data set” (2004)
The source made the active and inactive calls.

What was measured:
HEK293 [1] = assay: NOD2 signaling inhibitors in MDP-stimulated cells, cell-based, uHTS, luminescence (AID 2001); type: functional; details: Homo sapiens
HEK293 [2] = assay: cells; details: Homo sapiens
INS1 = assay: beta cell apoptosis inhibitors, cytokine rescue, dose response, luminescence, retest (AID 449756); type: functional, cell-based; details: Rattus norvegicus;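 also: cell death triggered by IL-1 beta plus TNF-alpha plus IFN-gamma mixture; protective hits raise ATP signal compared with cytokine alone wells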
Tumor necrosis factor = Tumor necrosis factor (Homo sapiens, UniProt P01375); assay: TNFa-triggered NF-kB activation inhibitors, SAR follow-up, cell-based, revised (AID 2337); type: functional
Sequence of Tumor necrosis factor (P01375 whole entry): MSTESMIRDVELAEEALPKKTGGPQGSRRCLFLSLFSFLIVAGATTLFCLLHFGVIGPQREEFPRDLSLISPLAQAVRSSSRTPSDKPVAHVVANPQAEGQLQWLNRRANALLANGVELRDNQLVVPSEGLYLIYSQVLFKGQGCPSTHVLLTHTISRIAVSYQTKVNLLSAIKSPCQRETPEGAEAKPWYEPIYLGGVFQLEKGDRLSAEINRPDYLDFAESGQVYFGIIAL

HEK293 [3] = assay: cells; type: functional, cell-based; details: Homo sapiens
[4] = target: T1, Nucleotide-binding oligomerization domain-containing protein 1 (Homo sapiens, UniProt Q9Y239); assay: NOD1 signaling inhibitors, SAR follow-up, revised (AID 2333); type: functional
T1 sequence (Q9Y239 whole entry): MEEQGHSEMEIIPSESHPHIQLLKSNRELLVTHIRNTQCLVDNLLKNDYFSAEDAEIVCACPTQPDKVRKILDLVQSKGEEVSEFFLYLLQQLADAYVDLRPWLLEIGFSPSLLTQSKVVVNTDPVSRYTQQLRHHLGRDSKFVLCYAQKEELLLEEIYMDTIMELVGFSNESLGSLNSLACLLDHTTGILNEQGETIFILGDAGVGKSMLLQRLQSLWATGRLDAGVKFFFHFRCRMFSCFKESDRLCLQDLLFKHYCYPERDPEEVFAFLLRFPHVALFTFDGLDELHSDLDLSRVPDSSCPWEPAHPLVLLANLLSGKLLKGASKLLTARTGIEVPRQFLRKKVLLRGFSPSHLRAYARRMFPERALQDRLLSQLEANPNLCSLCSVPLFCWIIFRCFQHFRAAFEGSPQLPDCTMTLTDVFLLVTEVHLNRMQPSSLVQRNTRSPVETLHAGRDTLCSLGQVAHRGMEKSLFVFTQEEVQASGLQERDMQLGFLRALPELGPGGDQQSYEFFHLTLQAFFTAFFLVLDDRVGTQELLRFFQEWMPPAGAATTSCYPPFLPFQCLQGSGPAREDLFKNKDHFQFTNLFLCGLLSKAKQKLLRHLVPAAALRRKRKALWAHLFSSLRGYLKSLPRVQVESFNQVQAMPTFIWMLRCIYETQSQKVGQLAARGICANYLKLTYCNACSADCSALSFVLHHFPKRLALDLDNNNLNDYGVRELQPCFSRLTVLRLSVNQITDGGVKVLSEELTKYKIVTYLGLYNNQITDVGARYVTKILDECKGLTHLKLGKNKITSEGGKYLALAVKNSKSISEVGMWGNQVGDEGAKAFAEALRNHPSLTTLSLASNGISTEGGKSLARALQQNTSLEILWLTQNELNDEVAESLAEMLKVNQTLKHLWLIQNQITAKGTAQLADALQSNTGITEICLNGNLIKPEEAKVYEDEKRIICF

HEK293 [5] = assay: cells; type: functional, cell-based; details: Homo sapiens; remark: listed apart in the source
HEK293 [6] = assay: NOD1 signaling inhibitors, primary screen, cell-based, luminescence, uHTS (AID 1578); type: functional; details: Homo sapiens
[7] = M. tuberculosis H37Rv growth inhibitors, H37Rv strain (AID 1626); type: functional
[8] = inhibitors of SNCA 5'UTR-driven reporter translation, confirmation, H4 neuroglioma cells, luminescence (AID 1988); type: functional, cell-based
[9] = cytotoxicity in HEK-293T cells, dose response, cytotoxicity control for BCR NF-kB inhibitor project, luminescence, B-cell screen hits (AID 489021); type: functional, cell-based;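 also: HEK-293T cells carrying an NF-kB luciferase reporter; cells exposed to compound for about 14 hours before viability readout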
[10] = inhibitors of firefly luciferase expression or activity, dose response, H4 neuroglioma cells, luminescence (AID 1990); type: functional, cell-based
[11] = Luminescence Cell-Based Dose Response HTS to Identify Inhibitors of 5'UTR Stem-Loop Driven Prion Protein mRNA Translation in H4 Neuroglioblastoma Cells. [Related pubchem assays: 1827 (Project Summary), 1813 (Primary HTS)]; type: functional
[12] = target: Eukaryotic translation initiation factor 4E (Mus musculus, UniProt P63073); assay: eIF4E–eIF4G protein interaction inhibitors, dose response, biochemical, TR-FRET (AID 855); type: functional;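 also: potency for disrupting eIF4E binding to eIF4GI seen as loss of FRET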
Sequence of Eukaryotic translation initiation factor 4E (P63073 whole entry): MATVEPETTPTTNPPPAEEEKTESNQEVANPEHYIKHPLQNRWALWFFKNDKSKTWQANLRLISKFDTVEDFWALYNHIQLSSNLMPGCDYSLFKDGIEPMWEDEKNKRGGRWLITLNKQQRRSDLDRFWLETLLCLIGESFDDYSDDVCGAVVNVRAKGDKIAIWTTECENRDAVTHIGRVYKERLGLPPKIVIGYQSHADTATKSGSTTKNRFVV

Aminopeptidase N = target: T2, Aminopeptidase N (Plasmodium falciparum FcB1/Columbia, UniProt O96935); assay: P. falciparum M1AAP inhibitors, biochemical, fluorogenic H-Leu-NHMec substrate, 1536-well (AID 1445); design: species or system Plasmodium falciparum 3D7, 3D7
T2 sequence (O96935 whole entry): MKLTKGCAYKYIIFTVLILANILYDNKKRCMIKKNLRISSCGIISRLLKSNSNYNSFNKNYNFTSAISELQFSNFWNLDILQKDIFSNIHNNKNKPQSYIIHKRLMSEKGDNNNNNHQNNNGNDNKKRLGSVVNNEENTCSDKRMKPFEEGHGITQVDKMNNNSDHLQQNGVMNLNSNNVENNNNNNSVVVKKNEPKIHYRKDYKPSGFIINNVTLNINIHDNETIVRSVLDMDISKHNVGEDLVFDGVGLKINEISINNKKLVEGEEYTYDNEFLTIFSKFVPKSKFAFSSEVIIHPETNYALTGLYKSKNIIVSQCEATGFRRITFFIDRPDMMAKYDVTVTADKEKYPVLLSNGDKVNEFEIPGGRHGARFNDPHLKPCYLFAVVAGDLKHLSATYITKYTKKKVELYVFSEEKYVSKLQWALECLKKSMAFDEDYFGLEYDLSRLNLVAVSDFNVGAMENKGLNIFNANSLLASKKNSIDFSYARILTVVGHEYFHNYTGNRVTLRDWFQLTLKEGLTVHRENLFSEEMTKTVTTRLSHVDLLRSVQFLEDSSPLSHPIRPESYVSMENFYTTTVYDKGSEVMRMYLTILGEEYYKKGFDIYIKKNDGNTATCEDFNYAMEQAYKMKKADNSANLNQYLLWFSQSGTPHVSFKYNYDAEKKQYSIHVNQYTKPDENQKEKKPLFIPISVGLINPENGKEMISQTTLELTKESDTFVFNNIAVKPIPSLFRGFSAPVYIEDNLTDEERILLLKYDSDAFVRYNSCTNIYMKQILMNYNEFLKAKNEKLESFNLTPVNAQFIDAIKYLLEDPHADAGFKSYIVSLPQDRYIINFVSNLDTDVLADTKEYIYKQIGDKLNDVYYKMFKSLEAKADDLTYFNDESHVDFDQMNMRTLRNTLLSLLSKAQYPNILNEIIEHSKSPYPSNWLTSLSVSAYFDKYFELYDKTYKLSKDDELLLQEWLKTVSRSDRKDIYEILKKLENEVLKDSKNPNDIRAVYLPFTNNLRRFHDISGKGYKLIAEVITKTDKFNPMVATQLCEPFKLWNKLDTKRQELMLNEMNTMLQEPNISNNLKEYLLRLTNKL

[13] = target: T3, Bifunctional protein GlmU (Mycobacterium tuberculosis, UniProt P9WMN3); assay: Inhibitors of Mycobacterial Glucosamine-1-phosphate acetyl transferase (GlmU). Secondary screen.; design: species or system Mycobacterium tuberculosis H37Rv
T3 sequence (P9WMN3 whole entry): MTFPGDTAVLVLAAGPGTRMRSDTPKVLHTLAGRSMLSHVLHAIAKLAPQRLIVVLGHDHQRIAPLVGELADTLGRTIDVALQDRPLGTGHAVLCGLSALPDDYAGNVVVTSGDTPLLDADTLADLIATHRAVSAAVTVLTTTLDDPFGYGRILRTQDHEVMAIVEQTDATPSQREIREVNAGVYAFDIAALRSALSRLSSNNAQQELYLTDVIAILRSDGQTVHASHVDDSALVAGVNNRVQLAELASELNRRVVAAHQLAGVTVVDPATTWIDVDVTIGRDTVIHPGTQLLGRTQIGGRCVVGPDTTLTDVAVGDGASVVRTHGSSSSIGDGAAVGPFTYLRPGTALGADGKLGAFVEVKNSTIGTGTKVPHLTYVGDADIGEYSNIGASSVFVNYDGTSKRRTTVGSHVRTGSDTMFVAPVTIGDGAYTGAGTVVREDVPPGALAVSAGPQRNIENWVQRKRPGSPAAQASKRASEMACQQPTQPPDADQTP

[14] = target: T4, Mannose-6-phosphate isomerase (Homo sapiens, UniProt P34949); assay: human PMI inhibitors, high substrate, primary screen, biochemical, fluorescence intensity, high mannose 6-phosphate (AID 1220)
T4 sequence (P34949 whole entry): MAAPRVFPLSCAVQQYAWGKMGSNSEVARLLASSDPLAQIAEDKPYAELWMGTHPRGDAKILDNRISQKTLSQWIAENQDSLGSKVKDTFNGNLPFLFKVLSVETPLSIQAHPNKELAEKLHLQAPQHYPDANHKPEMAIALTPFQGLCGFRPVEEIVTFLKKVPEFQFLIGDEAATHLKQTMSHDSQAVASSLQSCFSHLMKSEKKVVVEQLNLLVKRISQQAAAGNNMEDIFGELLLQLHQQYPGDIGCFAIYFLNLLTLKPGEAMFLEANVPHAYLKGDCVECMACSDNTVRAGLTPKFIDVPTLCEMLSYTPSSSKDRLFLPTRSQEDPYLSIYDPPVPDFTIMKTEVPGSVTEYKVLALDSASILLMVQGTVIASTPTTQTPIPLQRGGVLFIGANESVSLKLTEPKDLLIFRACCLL

Genome polyprotein = Genome polyprotein (dengue virus type 2, UniProt P29990); assay: Dengue-2 NS5 methyltransferase inhibitors, primary screen, biochemical, confirmation dose response (AID 588689); type: functional
Sequence of Genome polyprotein (P29990 2492-3391 limits assumed): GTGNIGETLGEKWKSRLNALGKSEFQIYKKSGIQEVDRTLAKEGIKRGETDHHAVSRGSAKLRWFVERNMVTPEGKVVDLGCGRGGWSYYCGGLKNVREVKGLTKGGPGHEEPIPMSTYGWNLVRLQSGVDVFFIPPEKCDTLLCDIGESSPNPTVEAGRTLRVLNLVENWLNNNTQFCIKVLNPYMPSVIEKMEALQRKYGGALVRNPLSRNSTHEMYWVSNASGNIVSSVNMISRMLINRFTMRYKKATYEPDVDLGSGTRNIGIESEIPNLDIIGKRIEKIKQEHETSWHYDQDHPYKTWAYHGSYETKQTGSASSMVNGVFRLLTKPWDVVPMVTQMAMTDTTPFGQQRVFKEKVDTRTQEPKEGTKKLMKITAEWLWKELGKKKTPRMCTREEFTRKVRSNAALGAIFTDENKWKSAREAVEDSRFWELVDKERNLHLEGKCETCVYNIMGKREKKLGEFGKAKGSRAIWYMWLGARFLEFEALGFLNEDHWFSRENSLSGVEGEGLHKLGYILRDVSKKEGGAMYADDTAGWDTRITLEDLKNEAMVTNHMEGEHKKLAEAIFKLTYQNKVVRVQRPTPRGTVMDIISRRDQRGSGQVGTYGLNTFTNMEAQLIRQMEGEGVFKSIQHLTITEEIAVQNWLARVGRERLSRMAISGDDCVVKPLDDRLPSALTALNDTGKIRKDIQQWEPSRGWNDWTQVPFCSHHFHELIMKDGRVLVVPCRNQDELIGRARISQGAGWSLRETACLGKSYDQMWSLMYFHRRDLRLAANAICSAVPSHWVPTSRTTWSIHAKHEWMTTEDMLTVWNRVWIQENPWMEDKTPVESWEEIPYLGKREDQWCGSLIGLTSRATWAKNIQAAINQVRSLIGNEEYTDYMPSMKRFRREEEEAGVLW

[15] = Luminescence Cell-Based Dose Retest to Confirm Inhibitors of Cancer Stem Cells. [Related pubchem assays (depositor defined):AID2717, AID2721]; type: functional; details: Homo sapiens
[16] = target: T5, Hepatocyte nuclear factor 4-alpha (Homo sapiens, UniProt P41235); type: functional, cell-based;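 also: biochemical luminescence-based dose-response counterscreen measuring inhibition of HNF4 dimerization, run alongside a screen for blockers of ABHD5–perilipin-5 interaction; split luciferase complementation of HNF4 fusion proteins in cell lysate measuring dimerization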
T5 sequence (P41235 whole entry): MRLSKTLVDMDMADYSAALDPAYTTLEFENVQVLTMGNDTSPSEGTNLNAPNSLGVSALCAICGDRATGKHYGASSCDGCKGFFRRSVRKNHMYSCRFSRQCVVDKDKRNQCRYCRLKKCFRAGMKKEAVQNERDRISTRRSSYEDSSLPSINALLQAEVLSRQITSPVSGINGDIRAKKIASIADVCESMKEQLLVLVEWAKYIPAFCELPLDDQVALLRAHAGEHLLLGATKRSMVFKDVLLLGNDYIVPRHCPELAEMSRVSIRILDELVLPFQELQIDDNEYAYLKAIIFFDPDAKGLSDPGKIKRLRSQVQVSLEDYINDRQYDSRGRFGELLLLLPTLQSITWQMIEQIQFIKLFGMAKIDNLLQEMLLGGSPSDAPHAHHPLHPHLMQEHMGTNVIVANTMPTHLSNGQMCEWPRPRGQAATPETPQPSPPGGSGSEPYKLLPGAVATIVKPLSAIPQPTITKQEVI

COc1ccccc1CNc1ncnc2sccc12
IC50 (HEK293 [1]): 8.12 µM (active)
IC50 (HEK293 [2]): > 20 µM (inactive)
AC50 (INS1): 4.26 µM (active)
IC50 (Tumor necrosis factor): 4.19 µM (active)
IC50 (HEK293 [3]): 4.4 µM (active)
IC50 [4]: 3.08 µM (active)
IC50 (HEK293 [5]): 14.8 µM (active)
EC50 (HEK293 [6]): 1.69 µM (active)

CC1(C)CC(NC(=O)c2sc3cc(Cl)ccc3c2Cl)CC(C)(C)N1
IC50 [7]: > 100 µM (active)

CCOC(=O)c1cc2c(=O)n3ccccc3nc2n(CC(C)C)/c1=N/C(=O)c1c(-c2c(F)cccc2Cl)noc1C
EC50 [8]: 42.8 µM (active)
IC50 [9]: > 80 µM (inactive)
EC50 [10]: 14.1 µM (active)
EC50 [11]: 15.8 µM (active)

Nc1nnc(SCc2ccccc2Cl)s1
IC50 [12]: > 64 µM (inactive)

O=C1NC(=S)S/C1=C\c1coc2ccc(O)cc2c1=O
IC50 (Aminopeptidase N): 38.8 µM (active)
IC50 [13]: 112 µM (active)

CCC1Cc2c(nc(N)c3c(N)nc(N4CCCCC4)c(C#N)c23)O1 (configuration not stated)
IC50 [14]: > 50 µM (not active)

Oc1nc(/C=C/c2ccc(Cl)cc2Cl)cc(C(F)(F)F)n1
IC50 (Genome polyprotein): 68.2 µM (active)
IC50 (HEK293 [1]): 5.9 µM (active)
AC50 [15]: 1.49 µM (active)
IC50 (HEK293 [2]): 11.9 µM (active)
IC50 (Tumor necrosis factor): 3.75 µM (active)
IC50 (HEK293 [3]): 7.72 µM (active)
IC50 [4]: 1.74 µM (active)
IC50 (HEK293 [5]): > 20 µM (inactive)
IC50 [16]: 4.57 µM (active)
EC50 (HEK293 [6]): 3.83 µM (active)
